Reference: US20250368634A1, “PHENYL AMIDE COMPOUNDS AND METHODS OF USE” (SCHRÖDINGER, INC., priority 2022, published 2025)

molecular target: SOS1-KRas (G12C) (Homo sapiens (Human), UniProt Q07889); assay: SOS1-KRas (G12C) FRET Assay; assay type: binding; conditions: inhibition of SOS1:KRAS interaction; 0.5 nM His10-SOS1 (res. 564-1049), 2.5 nM GST-KRAS (res. 1-169, G12C); 2 hrs at RT
Sequence (Q07889 564-1049, stated change not applied): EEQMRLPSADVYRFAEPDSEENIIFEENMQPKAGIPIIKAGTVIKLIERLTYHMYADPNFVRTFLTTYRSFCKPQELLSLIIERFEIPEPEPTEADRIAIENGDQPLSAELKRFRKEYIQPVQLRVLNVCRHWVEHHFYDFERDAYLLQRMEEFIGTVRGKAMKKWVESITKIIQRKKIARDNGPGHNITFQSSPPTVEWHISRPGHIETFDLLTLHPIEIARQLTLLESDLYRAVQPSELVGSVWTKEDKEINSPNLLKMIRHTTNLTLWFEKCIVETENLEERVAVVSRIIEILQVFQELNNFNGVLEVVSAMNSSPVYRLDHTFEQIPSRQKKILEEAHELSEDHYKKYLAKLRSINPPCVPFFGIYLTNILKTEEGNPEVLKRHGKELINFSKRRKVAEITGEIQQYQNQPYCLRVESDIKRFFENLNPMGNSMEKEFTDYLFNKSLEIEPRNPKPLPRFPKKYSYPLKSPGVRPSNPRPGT
Method: The final assay was performed at 20 uL with 0.5 nM SOS1 protein and 2.5 nM KRAS protein in a buffer of PBS, 0.1% BSA, 5 mM MgCl2, 0.0025% Igepal, 100 mM KF, 5 mM DTT in a white 384 square well OptiPlate (PerkinElmer, Cat. 6007290). A 2×KRAS working solution was prepared in an assay buffer containing 5 nM GST-KRAS G12C and 2 nM anti-GST-Eu (K) (Cisbio, Cat. 61GSTKLA) and pre-incubated for 15 minutes at 25° C. […] The final DMSO concentration is 0.5%. Plates were incubated at RT for 2 hrs before the FRET signal was measured using Envision at emission 665 nm and 615 nm. FRET signal was converted to percentage of protein-protein interaction using the following equation:
[formula] • C: signal with compound treatment • P: signal for positive control (DMSO) • N: signal for negative control (no SOS1 added) • IC50 and Hill coefficients were obtained using Graph Pad Prism (Graph Pad software, Inc, USA) with non-linear regression analysis.

| SMILES | IC50 [nM] |
| --- | --- |
| C[C@@H](NC(=O)c1cc(-c2ccncn2)c(F)cc1NC1CCN(C)CC1)c1cccc(C(F)F)c1F [Example 66, (R)—N-(1-(3-(difluoromethyl)-2-fluorophenyl)ethyl)-4-fluoro-2-((1-methylpiperidin-4-yl)amino)-5-(pyrimidin-4-yl)benzamide] | 34.9 |
| C[C@@H](NC(=O)c1cc(C2CC2)c(F)cc1NC1CCN(C)CC1)c1cccc(C(F)F)c1F [Example 67, (R)-5-cyclopropyl-N-(1-(3-(difluoromethyl)-2-fluorophenyl)ethyl)-4-fluoro-2-((1-methylpiperidin-4-yl)amino)benzamide] | 216 |
| C[C@@H](NC(=O)c1cc(C23CC(C2)C3)c(F)cc1NC1CCN(C)CC1)c1cccc(C(F)F)c1F [Example 68, (R)-5-(bicyclo[1.1.1]pentan-1-yl)-N-(1-(3-(difluoromethyl)-2-fluorophenyl)ethyl)-4-fluoro-2-((1-methylpiperidin-4-yl)amino)benzamide] | 138 |
| C[C@@H](NC(=O)c1cc(C23CC(C2)C3)c(F)cc1N[C@H]1CN2CCC1CC2)c1cccc(C(F)F)c1F [Example 69, 5-(bicyclo[1.1.1]pentan-1-yl)-N—((R)-1-(3-(difluoromethyl)-2-fluorophenyl)ethyl)-4-fluoro-2-(((R)-quinuclidin-3-yl)amino)benzamide] | 120 |
| C[C@@H](NC(=O)c1cc(C23CC(C2)C3)c(F)cc1N[C@@H]1CN2CCC1CC2)c1cccc(C(F)F)c1F [Example 70, 5-(bicyclo[1.1.1]pentan-1-yl)-N—((R)-1-(3-(difluoromethyl)-2-fluorophenyl)ethyl)-4-fluoro-2-(((S)-quinuclidin-3-yl)amino)benzamide] | 347 |
| COC(=O)c1cc(C(=O)N[C@H](C)c2cccc(C(F)F)c2F)c(NC2CCN(C)CC2)cc1F [Example 71, methyl (R)-5-((1-(3-(difluoromethyl)-2-fluorophenyl)ethyl)carbamoyl)-2-fluoro-4-((1-methylpiperidin-4-yl)amino)benzoate] | 93.6 |
| C[C@@H](NC(=O)c1cc(-c2nnco2)c(F)cc1NC1CCN(C)CC1)c1cccc(C(F)F)c1F [Example 72, (R)—N-(1-(3-(difluoromethyl)-2-fluorophenyl)ethyl)-4-fluoro-2-((1-methylpiperidin-4-yl)amino)-5-(1,3,4-oxadiazol-2-yl)benzamide] | 11.4 |
| CNC(=O)c1cc(C(=O)N[C@H](C)c2cccc(C(F)F)c2F)c(NC2CCN(C)CC2)cc1F [Example 73, (R)—N1-(1-(3-(difluoromethyl)-2-fluorophenyl)ethyl)-4-fluoro-N3-methyl-6-((1-methylpiperidin-4-yl)amino)isophthalamide] | 148 |
| C[C@@H](NC(=O)c1cc(C(=O)N2CCC(F)(F)CC2)c(F)cc1NC1CCN(C)CC1)c1cccc(C(F)F)c1F [Example 74, (R)—N-(1-(3-(difluoromethyl)-2-fluorophenyl)ethyl)-5-(4,4-difluoropiperidine-1-carbonyl)-4-fluoro-2-((1-methylpiperidin-4-yl)amino)benzamide] | 888 |
| C[C@@H](NC(=O)c1cc(C(=O)N(C)C)c(F)cc1NC1CCN(C)CC1)c1cccc(C(F)F)c1F [Example 75, (R)—N1-(1-(3-(difluoromethyl)-2-fluorophenyl)ethyl)-4-fluoro-N3,N3-dimethyl-6-((1-methylpiperidin-4-yl)amino)isophthalamide] | 244 |
| CC(C)NC(=O)c1cc(C(=O)N[C@H](C)c2cccc(C(F)F)c2F)c(NC2CCN(C)CC2)cc1F [Example 76, (R)—N1-(1-(3-(difluoromethyl)-2-fluorophenyl)ethyl)-4-fluoro-N3-isopropyl-6-((1-methylpiperidin-4-yl)amino)isophthalamide] | 874 |
| C[C@@H](NC(=O)c1cc(C(=O)N2CCOCC2)c(F)cc1NC1CCN(C)CC1)c1cccc(C(F)F)c1F [Example 77, (R)—N-(1-(3-(difluoromethyl)-2-fluorophenyl)ethyl)-4-fluoro-2-((1-methylpiperidin-4-yl)amino)-5-(morpholine-4-carbonyl)benzamide] | 240 |
| COC(=O)c1ccc(NC2CCN(C)CC2)c(C(=O)N[C@H](C)c2cccc(C(F)F)c2F)c1 [Example 78, methyl (R)-3-((1-(3-(difluoromethyl)-2-fluorophenyl)ethyl)carbamoyl)-4-((1-methylpiperidin-4-yl)amino)benzoate] | 230 |
| C[C@@H](NC(=O)c1cc(N2CCOCC2)c(C(F)F)cc1NC1CCN(C)CC1)c1cccc(C(F)F)c1F [Example 79, (R)-4-(difluoromethyl)-N-(1-(3-(difluoromethyl)-2-fluorophenyl)ethyl)-2-((1-methylpiperidin-4-yl)amino)-5-morpholinobenzamide] | 39.1 |
| C[C@@H](NC(=O)c1cc(N2CCOCC2)c(Cl)cc1N[C@H]1CN2CCC1CC2)c1cccc(C(F)F)c1F [Example 80, 4-chloro-N—((R)-1-(3-(difluoromethyl)-2-fluorophenyl)ethyl)-5-morpholino-2-(((R)-quinuclidin-3-yl)amino)benzamide] | 44.3 |
| C[C@@H](NC(=O)c1cc(N2CCOCC2)c(Cl)cc1N[C@@H]1CN2CCC1CC2)c1cccc(C(F)F)c1F [Example 81, 4-chloro-N—((R)-1-(3-(difluoromethyl)-2-fluorophenyl)ethyl)-5-morpholino-2-(((S)-quinuclidin-3-yl)amino)benzamide] | 12.6 |
